This note sets out measurements from patent US5641480A, “Hair care compositions comprising heteroatom containing alkyl aldonamide compounds” (Lever Brothers Company, Division of Conopco, Inc., priority 1994, dated 1997).

A short description of this data set: Ross-Miles foam height assay of aldonamides (Examples 81-84). Format: physicochemical. To be noted: 0.1% aldonamide, 40° C. (if not soluble, about 5°-10° C. above Krafft point), 0 ppm hardness; for Foam Height Final: after 10 minutes. The protocol:
In the Ross-Miles method, 200 mL of a suffactant solution contained in a pipette of specified dimensions with a 2.9 -mm-i.d. orifice is allowed to fall 90 cm onto 50 mL of the same solution contained in a cylindrical vessel maintained at a given temperature by means of a water jacket. The height of the foam produced in the cylindrical vessel is read immediately after all the solution has run out of the pipette and then again after a given amount of time.
Using this method, the foam production (initial foam height in mm) and foam stability (final foam height after 10 minutes in mm) were measured at 0.1% aldonamtde concentration, 40° C. and 0 ppm (parts per million) hardness.

For `CCCCCCCCCCCCNC(=O)[C@@H](O)[C@H](O)[C@H](O)[C@@H](O)CO` [C12 L-Galactonamide], the “Foam Height Initial” value is “Insoluble”.

`CCCCCCCCCCCCCCOCCCNC(=O)[C@H](O)[C@@H](O)[C@H](O)[C@H](O)CO` [C14 Oxypropyl D-Gluconamide]: the “Foam Height Initial” value was 203 mm and the “Foam Height Final” value came out at 101 mm.

On to “Octyl/Decyloxypropyl D-Ribonamide [C8 /C10 Oxypropyl D-Ribonamide]”, for which the “Foam Height Initial” value stood at 217 mm and the “Foam Height Final” value is recorded as 200 mm.

Regarding `CCCCCCCCCCCCNC(=O)[C@H](O)[C@@H](O)[C@@H](O)[C@H](O)CO` [C12 D-Galactonamide], the “Foam Height Initial” value was “Insoluble”.

Regarding `CCCCCCCCCCCC(=O)OCCNC(=O)[C@H](O)[C@@H](O)[C@H](O)[C@H](O)CO` [N--D-Gluconyl C12 Ester of Ethanolamine, N-D-gluconyl dodecyl ester of ethanolamine], the “Foam Height Initial” value is reported as 185 mm and the “Foam Height Final” value was 111 mm.

As to `CCCCCCCCCCCCNC(=O)[C@H](O)[C@H](O)[C@H](O)CO` [C12 Ribonamide, Dodecyl D-Ribonamide], the “Foam Height Initial” value came to 184 mm and the “Foam Height Final” value is reported as 103 mm.

With `CCCCCCCCCCCCCCCCNC(=O)[C@H](O)[C@@H](O)[C@H](O)[C@H](O)CO` [C16 D-Gluconamide], the “Foam Height Initial” value is on record as “Insoluble”.

For `CCCCCCCNC(=O)[C@H](O)[C@@H](O)[C@H](O)[C@H](O)CO` [C7 D-Gluconamide], the “Foam Height Initial” value stood at 0 mm and the “Foam Height Final” value is recorded as 0 mm.

Turning to `CCCCCCCCCCCCOCCOCCOC(=O)CNC(=O)[C@H](O)[C@@H](O)[C@H](O)[C@H](O)CO` [N--D-Gluconyl C12 Di(oxyethyl) Glycinate, N-D-Gluconyl Dodecyldi(oxyethyl) Glycinate], the “Foam Height Initial” value is 203 mm and the “Foam Height Final” value is 169 mm.

`CCCCCCCCCCCCNC(=O)[C@H](O)[C@H](O)[C@@H](O)[C@@H](O)[C@H](O)CO` [C12 D-Glycero-L-Mannoheptonamide]: the “Foam Height Initial” value was “Insoluble”.

For the molecule `CCCCC(CC)COCCCNC(=O)[C@H](O)[C@@H](O)[C@H](O)[C@H](O)CO` (stereo partly drawn) [Ethylhexyloxypropyl D-Gluconamide], the “Foam Height Initial” value was 0 mm and the “Foam Height Final” value worked out at 0 mm.

Consider `CCCCCCCCCCCCOCCCNC(=O)[C@H](O)[C@H](O)[C@@H](O)[C@H](O)[C@H](O)CO` [C12 Oxypropyl D-Glucoheptonamide], for which the “Foam Height Initial” value came out at 245 mm and the “Foam Height Final” value came out at 80 mm.

On to `CCCCCCCCNC(=O)[C@H](O)[C@@H](O)[C@H](O)[C@H](O)CO` [C8 D-Gluconamide], for which the “Foam Height Initial” value stood at 0 mm and the “Foam Height Final” value stood at 0 mm.

Regarding `CCCCCCCCCCCCOC(=O)C(C)NC(=O)[C@H](O)[C@@H](O)[C@H](O)[C@H](O)CO` (mixture of isomers) [N--D-Gluconyl C12 DL-Alaninate, N-D-Gluconyl Dodecyl DL-Alaninate], the “Foam Height Initial” value came out at 197 mm and the “Foam Height Final” value turned out to be 112 mm.

`CCCCCCCCCCCCOC(=O)CNC(=O)[C@H](O)[C@@H](O)[C@H](O)[C@H](O)CO` [N--D-Gluconyl C12 Glycinate, N-D-Gluconyl Dodecyl Glycinate]: the “Foam Height Initial” value turned out to be 183 mm and the “Foam Height Final” value amounted to 107 mm.

For `CCCCCCCCCCCCCCNC(=O)[C@H](O)[C@@H](O)[C@H](O)[C@H](O)CO` [C14 D-Gluconamide], the “Foam Height Initial” value was “Insoluble”.

On to `CCCCCCCCCCCCCCCCCCNC(=O)[C@H](O)[C@@H](O)[C@H](O)[C@H](O)CO` [C18 D-Gluconamide], for which the “Foam Height Initial” value is given as “Insoluble”.

In the case of `CCCCCCCC/C=C\CCCCCCCCNCCCNC(=O)[C@H](O)[C@@H](O)[C@H](O)[C@H](O)CO` [Oleylaminopropyl D-Gluconamide], the “Foam Height Initial” value stood at 158 mm and the “Foam Height Final” value is recorded as 84 mm.
